Results as given in patent publication US20090011410A1, “METHOD FOR TAILORING ADMINISTRATION OF DRUGS BY QUANTITATION OF MRNA” (priority 2004, published 2009).
Entries after “also recorded” stand apart in the source; their conditions may differ.

Tests used:
[1] = tested on: p21 mRNA, U937 cells; assay: etoposide-induced p21 mRNA expression in cultured U937 cells; format: cell-based, human; details: 10 μM etoposide, 2 hours at 37° C. (FIG. 1)
Method: (§1) Blood was obtained from healthy adults and from two leukemic non-Hodgkin's malignant lymphoma patients. […] For human experiments, blood aliquots were stimulated with various anti-cancer drugs at 37° C. for 2 hours, then both p21 and BAX mRNA were measured. The anti-cancer drugs used in this study were clinical drugs, and the concentration of each drug was adjusted to typical blood levels 3-6 hours after intravenous administration.
(§2) The mRNA and cDNA were prepared from whole blood. In brief, home-made 96-well filterplates were placed over collection plates, and 150 μl 5 mM Tris, pH 7.4, was applied. Following centrifugation at 120×g for 1 min at 4° C., 50 μl of blood samples were applied to each well and immediately centrifuged at 120×g for 2 min at 4° C., followed by washing of each well with 300 μl PBS once with centrifugation at 2000×g for 5 min at 4° C. […] The Ct was determined by analytical software (SDS, ABI).

[2] = tested on: BAX mRNA; assay: drug-induced BAX mRNA expression in whole blood of leukemia and lymphoma patients; format: cell-based, human; details: leukemic lymphoma patient 2, 2 hours at 37° C., drug concentrations (FIG. 3)
Method: For human experiments, blood aliquots were stimulated with various anti-cancer drugs at 37° C. for 2 hours, then both p21 and BAX mRNA were measured. The anti-cancer drugs used in this study were clinical drugs, and the concentration of each drug was adjusted to typical blood levels 3-6 hours after intravenous administration.
The mRNA and cDNA were prepared from whole blood. In brief, home-made 96-well filterplates were placed over collection plates, and 150 μl 5 mM Tris, pH 7.4, was applied. Following centrifugation at 120×g for 1 min at 4° C., 50 μl of blood samples were applied to each well and immediately centrifuged at 120×g for 2 min at 4° C., followed by washing of each well with 300 μl PBS once with centrifugation at 2000×g for 5 min at 4° C. Then, 60 μl stock lysis buffer, containing for example 0.5% N-Lauroylsarcosine, 4×SSC, 10 mM Tris HCl, pH 7.4, 1 mM EDTA, 0.1% IGEPAL CA-630, and 1.791 M guanidine thiocyanate, supplemented with 1% 2-mercaptoethanol (Bio Rad, Hercules, Calif., USA), 0.5 mg/ml proteinase K (Pierce, Rockford, Ill., USA), 0.1 mg/ml salmon sperm DNA (5 Prime Eppendorf/Brinkmann, Westbury, N.Y., USA), 0.1 mg/ml E. coli tRNA (Sigma), a cocktail of 10 mM each of the specific reverse primers shown in Table 1, and standard RNA34 oligonucleotides, were applied to the filterplates, followed by incubation at 37° C. for 10 min. The filterplates were then placed over oligo(dT)-immobilized microplates (GenePlate, RNAture), and centrifuged at 2000×g for 5 min at 4° C. Following overnight storage at 4° C., the microplates were washed with 100 μl plain lysis buffer 3 times, followed by 150 μl of wash buffer (0.5 M NaCl, 10 mM Tris, pH 7.4, 1 mM EDTA) 3 times at 4° C. The cDNA was directly synthesized in each well by adding 30 μl buffer containing 1× RT-butter, 1.25 mM each of dNTP, 4 units rRNasin, and 80 units of MMLV reverse transcriptase (Promega) (without primers), and incubation at 37° C. for 2 hours. The specific primer-primed cDNA existed in solution, and oligo(dT)-primed cDNA stayed immobilized in the microplate. For TaqMan PCR (FIGS. 1, 3, 4), the resultant 4 μl cDNA solution was directly transferred to 384-well PCR plates, to which 5 μl of TaqMan universal master mix (ABI) and 1 μl oligonucleotide cocktail (15 μM each of forward and reverse primer, and 3-6 μM TaqMan probe) were applied, and PCR was conducted in PRISM 7900HT (ABI), with one cycle of 95° C. for 10 min followed by 45 cycles of 95° C. for 30 sec, 55° C. for 30 sec, and 60° C. for 1 min. […] The Ct was determined by analytical software (SDS, ABI).

[3] = tested on: leukemic non-Hodgkin's malignant lymphoma patient; assay: clinical course of patient 2 (leukemic non-Hodgkin's lymphoma); format: in vivo, human; details: patient 2 with continued thrombocytopenia (FIG. 4)
[4] = tested on: p21 mRNA, Jurkat cells; assay: etoposide-induced p21 mRNA expression in cultured Jurkat cells; format: cell-based, human; details: even when 100 μM was used (FIG. 1)
Method: as §1, §2

[5] = tested on: p21 mRNA, U937 cells mixed with blood; assay: etoposide-induced p21 mRNA expression from U937 cells mixed in healthy adult blood; format: cell-based, human; details: 10 μM etoposide-treated U937, 1,250 U937 cells added to 1 μL blood, vs DMSO-treated U937 (FIG. 2)
Method: The mRNA and cDNA were prepared from whole blood. In brief, home-made 96-well filterplates were placed over collection plates, and 150 μl 5 mM Tris, pH 7.4, was applied. Following centrifugation at 120×g for 1 min at 4° C., 50 μl of blood samples were applied to each well and immediately centrifuged at 120×g for 2 min at 4° C., followed by washing of each well with 300 μl PBS once with centrifugation at 2000×g for 5 min at 4° C. Then, 60 μl stock lysis buffer, containing for example 0.5% N-Lauroylsarcosine, 4×SSC, 10 mM Tris HCl, pH 7.4, 1 mM EDTA, 0.1% IGEPAL CA-630, and 1.791 M guanidine thiocyanate, supplemented with 1% 2-mercaptoethanol (Bio Rad, Hercules, Calif., USA), 0.5 mg/ml proteinase K (Pierce, Rockford, Ill., USA), 0.1 mg/ml salmon sperm DNA (5 Prime Eppendorf/Brinkmann, Westbury, N.Y., USA), 0.1 mg/ml E. coli tRNA (Sigma), a cocktail of 10 mM each of the specific reverse primers shown in Table 1, and standard RNA34 oligonucleotides, were applied to the filterplates, followed by incubation at 37° C. for 10 min. The filterplates were then placed over oligo(dT)-immobilized microplates (GenePlate, RNAture), and centrifuged at 2000×g for 5 min at 4° C. […] The Ct was determined by analytical software (SDS, ABI). […]

[6] = tested on: PUMA mRNA; assay: drug-induced PUMA mRNA expression in whole blood of leukemia and lymphoma patients; format: cell-based, human; details: 2 hours at 37° C.
[7] = tested on: human whole blood; assay: DNA fragmentation (apoptosis) in whole blood by agarose gel electrophoresis; format: cell-based; details: 1 day of incubation, 100 μM VP-16, 20 μM BLM (FIG. 5 inset)
Method: Using a commercial kit (Puregene, Gentra, Minneapolis, Minn.), genomic DNA was purified from 300 μl each of whole blood with or without treatments. DNA was then analyzed in 3.5% agarose (3:1 NuSieve:agarose, FMC, Rockland, Me.) gel electrophoresis, stained with 0.5 μg/ml ethidium bromide, and photographic images were recorded by AlphaImager (Alpha Innotech, San Leandro, Calif.).
To mimic physiological conditions, whole blood was used, without isolating mononuclear cells. […] After 1 day of incubation, genomic DNA was extracted, and DNA fragmentation was analyzed by agarose gel electrophoresis using ethidium bromide staining.
Genomic DNA was purified from 300 μl each of whole blood with or without treatments, using a commercial kit (Puregene, Gentra, Minneapolis, Minn.). DNA was then analyzed in 3.5% agarose (3:1 NuSieve:agarose, FMC, Rockland, Me.) gel electrophoresis, stained with 0.5 μg/ml ethidium bromide, and photographic images were recorded by Alpha-Iimager (Alpha Innotech, San Leandro, Calif.).

Compound | p21 expression [1] | BAX mRNA induction [2] | platelet count [3] | drug sensitivity (p21 mRNA expression) [4] | p21 mRNA expression [5] | PUMA induction ([6]; AML patient, drug concentrations of b94 (FIG. 8B)) | PUMA response ([6]; NHL patient, drug concentrations (FIG. 8C)) | fragmentation of DNA [7]
COc1cc([C@@H]2c3cc4c(cc3[C@@H](O[C@@H]3O[C@@H]5CO[C@@H](C)O[C@H]5[C@H](O)[C@H]3O)[C@H]3COC(=O)[C@H]23)OCO4)cc(OC)c1O [VP-16, etoposide] | slight but significant p21 expression | induced | increased substantially | resistant | significant | huge induction | strong PUMA response | –
bleomycin [BLM] | – | – | – | – | – | – | – | confirmed; also recorded: fragmentation of DNA was observed
